Laboratory results from patent US10604512B2, “3-(1H-indol-2-yl)-1H-indazoles and therapeutic uses thereof” (Samumed, LLC, priority 2015, dated 2020).

Tested on: Primary human fibroblasts derived from IPF patients (LL29 cells) treated with TGF-β1
Test: Inhibition of the fibrotic process: αSMA staining in TGF-β1-treated primary human fibroblasts from IPF patients (LL29 cells)
Format: cell-based
Details: Fibroblast, 96 h; for EC50: % αSMA-positive LL29 cells, TGF-β1 20 ng/mL, 4 days; for inhibition at 10 µM: given where EC50 >10 μM, αSMA, LL29 cells, TGF-β1, 4 days, read-out: percent inhibition at 10 μM
Summary of the method: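 LL29 IPF-patient fibroblasts in 1% FBS stimulated with TGF-β1 (20 ng/mL) and compound (10 μM–1.87 nM, 0.1% DMSO) for 4 days at 37 °C. SYTOX-positive cells excluded; % αSMA-positive cells imaged, normalized to TGF-β1/DMSO wells; EC50 by nonlinear regression, else % inhibition at 10 μM.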

| Structure (SMILES) | EC50 [µM] | inhibition at 10 µM [%] |
| --- | --- | --- |
| CCCC(=O)Nc1cncc(-c2ccc3[nH]nc(-c4cc5c(-c6ccncc6)cccc5[nH]4)c3c2)c1 [Compound 129, N-(5-(3-(4-(Pyridin-4-yl)-1H-indol-2-yl)-1H-indazol-5-yl)pyridin-3-yl) butyramide] | 2.87 | – |
| CC(C)CC(=O)Nc1cncc(-c2ccc3[nH]nc(-c4cc5c(-c6ccc(F)cc6)cccc5[nH]4)c3c2)c1 [Compound 30, N-(5-(3-(4-(4-Fluorophenyl)-1H-indol-2-yl)-1H-indazol-5-yl)pyridin-3-yl)-3-methylbutanamide] | 2.52 | – |
| O=C(Cc1ccccc1)Nc1cncc(-c2ccc3[nH]nc(-c4cc5c(-c6ccncc6)cccc5[nH]4)c3c2)c1 [Compound 122, 2-Phenyl-N-(5-(3-(4-(pyridin-4-yl)-1H-indol-2-yl)-1H-indazol-5-yl)pyridin-3-yl)acetamide] | > 10 | 0 |
| CC(C)(C)CC(=O)Nc1cncc(-c2ccc3[nH]nc(-c4cc5c(-c6ccc(F)cc6)cccc5[nH]4)c3c2)c1 [Compound 44, N-(5-(3-(4-(4-Fluorophenyl)-1H-indol-2-yl)-1H-indazol-5-yl)pyridin-3-yl)-3,3-dimethylbutanamide] | 4.99 | – |
| c1cncc(-c2ccc3[nH]nc(-c4cc5c(-c6cccs6)cccc5[nH]4)c3c2)c1 [Compound 340, 5-(Pyridin-3-yl)-3-(4-(thiophen-2-yl)-1H-indol-2-yl)-1H-indazole] | > 10 | 38.3 |
| CN1CCN(c2cccc3[nH]c(-c4n[nH]c5ccc(-c6cncc(NC(=O)CC7CCNCC7)c6)cc45)cc23)CC1 [Compound 669, N-(5-(3-(4-(4-Methylpiperazin-1-yl)-1H-indol-2-yl)-1H-indazol-5-yl)pyridin-3-yl)-2-(piperidin-4-yl)acetamide] | > 10 | 17.7 |
| c1csc(-c2cccc3[nH]c(-c4n[nH]c5ccc(-c6ccncc6)cc45)cc23)c1 [Compound 354, 5-(pyridin-4-yl)-3-(4-(thiophen-2-yl)-1H-indol-2-yl)-1H-indazole] | > 10 | 0 |
| Fc1cccc(-c2cccc3[nH]c(-c4n[nH]c5ccc(-c6cccnc6)cc45)cc23)c1 [Compound 4, 3-(4-(3-Fluorophenyl)-1H-indol-2-yl)-5-(pyridin-3-yl)-1H-indazole] | > 10 | 10.4 |
| Fc1ccc(-c2cccc3[nH]c(-c4n[nH]c5ccc(C6=CCNCC6)cc45)cc23)cc1 [Compound 550, 3-(4-(4-Fluorophenyl)-1H-indol-2-yl)-5-(1,2,3,6-tetrahydropyridin-4-yl)-1H-indazole] | > 10 | 41.7 |
| O=C(Nc1cncc(-c2ccc3[nH]nc(-c4cc5c(-c6ccccn6)cccc5[nH]4)c3c2)c1)c1ccccc1 [Compound 151, N-(5-(3-(4-(Pyridin-2-yl)-1H-indol-2-yl)-1H-indazol-5-yl)pyridin-3-yl) benzamide] | > 10 | 0 |
| CC(C)CC(=O)Nc1cncc(-c2ccc3[nH]nc(-c4cc5ncccc5[nH]4)c3c2)c1 [Compound 506, N-(5-(3-(1H-Pyrrolo[3,2-b]pyridin-2-yl)-1H-indazol-5-yl)pyridin-3-yl)-3-methylbutanamide] | > 10 | 24.2 |
| Cc1ncc(-c2ccc3[nH]nc(-c4cc5c(-c6ccncc6)cccc5[nH]4)c3c2)n1C [Compound 601, 5-(1,2-Dimethyl-1H-imidazol-5-yl)-3-(4-(pyridin-4-yl)-1H-indol-2-yl)-1H-indazole] | 4.19 | – |
| CN(C)Cc1cncc(-c2ccc3[nH]nc(-c4cc5c(-c6cccc(F)c6)cccc5[nH]4)c3c2)c1 [Compound 13, 1-(5-(3-(4-(3-Fluorophenyl)-1H-indol-2-yl)-1H-indazol-5-yl)pyridin-3-yl)-N,N-dimethylmethanamine] | 0.302 | – |
| CC(C)(C)CC(=O)Nc1cncc(-c2ccc3[nH]nc(-c4cc5ccccc5[nH]4)c3c2)c1 [Compound 268, N-(5-(3-(1H-Indol-2-yl)-1H-indazol-5-yl)pyridin-3-yl)-3,3-dimethylbutanamide] | 6.89 | – |
| CC(C)(C)C(=O)Nc1cncc(-c2ccc3[nH]nc(-c4cc5c(-c6cc(F)cc(CNS(C)(=O)=O)c6)cccc5[nH]4)c3c2)c1 [Compound 484, N-(5-(3-(4-(3-Fluoro-5-(methylsulfonamidomethyl)phenyl)-1H-indol-2-yl)-1H-indazol-5-yl)pyridin-3-yl)pivalamide] | > 10 | 25.5 |
| O=C(Nc1cncc(-c2ccc3[nH]nc(-c4cc5c(-c6ccccc6F)cccc5[nH]4)c3c2)c1)C1CCCC1 [Compound 78, N-(5-(3-(4-(2-Fluorophenyl)-1H-indol-2-yl)-1H-indazol-5-yl)pyridin-3-yl) cyclopentanecarboxamide] | > 10 | 3.7 |
| O=C(Nc1cncc(-c2ccc3[nH]nc(-c4cc5ncccc5[nH]4)c3c2)c1)C1CCC1 [Compound 525, N-(5-(3-(1H-Pyrrolo[3,2-b]pyridin-2-yl)-1H-indazol-5-yl)pyridin-3-yl) cyclobutanecarboxamide] | > 10 | 29.4 |
| c1ccc2[nH]c(-c3n[nH]c4ccc(-c5cncc(CN6CCCCC6)c5)cc34)cc2c1 [Compound 267, 3-(1H-Indol-2-yl)-5-(5-(piperidin-1-ylmethyl)pyridin-3-yl)-1H-indazole] | > 10 | 49.9 |
| CCC(=O)Nc1cncc(-c2ccc3[nH]nc(-c4cc5ccccc5[nH]4)c3c2)c1 [Compound 253, N-(5-(3-(1H-Indol-2-yl)-1H-indazol-5-yl)pyridin-3-yl)propionamide] | 2.31 | – |
| O=C(Nc1cncc(-c2ccc3[nH]nc(-c4cc5c(-c6ccncc6)cccc5[nH]4)c3c2)c1)C1CCCCC1 [Compound 135, N-(5-(3-(4-(Pyridin-4-yl)-1H-indol-2-yl)-1H-indazol-5-yl)pyridin-3-yl) cyclohexanecarboxamide] | > 10 | 10.7 |
| CC(C)CC(=O)Nc1cncc(-c2ccc3[nH]nc(-c4cc5c(-c6ccsc6)cccc5[nH]4)c3c2)c1 [Compound 282, 3-Methyl-N-(5-(3-(4-(thiophen-3-yl)-1H-indol-2-yl)-1H-indazol-5-yl)pyridin-3-yl)butanamide] | > 10 | 34.9 |
| O=C(Nc1cncc(-c2ccc3[nH]nc(-c4cc5ccccc5[nH]4)c3c2)c1)C1CCC1 [Compound 273, N-(5-(3-(1H-Indol-2-yl)-1H-indazol-5-yl)pyridin-3-yl) cyclobutanecarboxamide] | > 10 | 3.5 |
| O=C(Nc1cncc(-c2ccc3[nH]nc(-c4cc5c(-c6cccc(F)c6)cccc5[nH]4)c3c2)c1)C1CCCCC1 [Compound 23, N-(5-(3-(4-(3-Fluorophenyl)-1H-indol-2-yl)-1H-indazol-5-yl)pyridin-3-yl) cyclohexanecarboxamide] | 3.29 | – |
| c1ccc(-c2ccc3[nH]nc(-c4cc5c(-c6ccncc6)cccc5[nH]4)c3c2)nc1 [Compound 140, 5-(Pyridin-2-yl)-3-(4-(pyridin-4-yl)-1H-indol-2-yl)-1H-indazole] | 1.26 | – |
| CC(C)(C)CC(=O)Nc1cncc(-c2ccc3[nH]nc(-c4cc5c(-c6ccccc6F)cccc5[nH]4)c3c2)c1 [Compound 72, N-(5-(3-(4-(2-Fluorophenyl)-1H-indol-2-yl)-1H-indazol-5-yl)pyridin-3-yl)-3,3-dimethylbutanamide] | > 10 | 0 |
